Consider 3 compounds from patent US11851410B2, “Sensors for detection of negatively charged phosphate-containing membranes and membrane components” (THE GOVERNING COUNCIL OF THE UNIVERSITY OF TORONTO, priority 2017, dated 2023).

The subject of assay [1] is POPG (PG) negatively charged vesicles. The assay can be described thus: Serial dilution vesicle fluorescence intensity experiments, PG vesicles. Particulars: sensor 25 μM (PSVue™380 1 μM), 50 mM HEPES, 5% DMSO, pH 7.5. The format is binding. From the text: (§1) The following equations were used for the calculations: […]
Assay [2] concerns Gram-positive bacteria (B. subtilis, B. megaterium, M. luteus, S. epidermidis). Particulars: sensor 10 μM; λex/em 350/476 nm.
Description: Bacteria samples were titrated from 10^8-10^10 cells/mL in a large-volume 12 well plate. Bacteria samples were added to black 384-well plates in triplicate.
Assay [3] has as its system POPA (PA) negatively charged vesicles. Kind of assay: Serial dilution vesicle fluorescence intensity experiments, PA vesicles. The assay is classed as binding. Particulars: for ΔΔFI: PA vesicles, sensor 25 μM (PSVue™380 1 μM), 50 mM HEPES, 5% DMSO, pH 7.5.
Description: as §1

In assay [4] the test system is DOPS (PS) negatively charged vesicles. Kind of assay: Serial dilution vesicle fluorescence intensity experiments, PS vesicles. Particulars: for ΔΔFI: sensor 25 μM (PSVue™380 1 μM), 50 mM HEPES, 5% DMSO, pH 7.5. The format is binding. Also on record: ΔΔFI: unit not given here.
Description: as §1
It is estimated that a mammalian cell membrane is composed of 10% PS, with the majority located on the inner leaflet in the healthy state. However, during the early stages of apoptosis, this asymmetry is lost and PS becomes symmetrically distributed resulting in ˜5% of PS externalized to the outer leaflet. To address if compounds of this application could potentially be used for the detection of the PS externalization event during apoptosis, the exemplary sensors were screened against PC vesicles containing biologically-relevant levels of PS ([…]; assuming that approximately half of the lipid head groups will be exposed to the interior of the vesicle). The resulting ΔΔFI for vesicle concentrations up to 40 μM are presented in FIG. 7 and Table 1 (ΔΔFI for vesicle concentrations up to 200 μM is presented in FIG. 4).

The test system of assay [5] is TOCL (CL) negatively charged vesicles. Kind of assay: Serial dilution vesicle fluorescence intensity experiments, CL vesicles. The assay is classed as binding. Particulars: for ΔΔFI: sensor 25 μM (PSVue™380 1 μM), 50 mM HEPES, 5% DMSO, pH 7.5. Also on record: ΔΔFI: unit not given here.
Description: as §1

In assay [6] the test system is POPE (PE) zwitterionic vesicles. Kind of assay: Serial dilution vesicle fluorescence intensity experiments, PE vesicles. The format is binding. Particulars: sensor 25 μM (PSVue™380 1 μM), 50 mM HEPES, 5% DMSO, pH 7.5.
Description: as §1

Assay [7] concerns DOPS (PS) negatively charged vesicles. Kind of assay: Serial dilution vesicle fluorescence intensity experiments, PS vesicles. The assay is classed as binding. Particulars: for ΔΔFI: sensor 25 μM (PSVue™380 1 μM), 50 mM HEPES, 5% DMSO, pH 7.5. Details: ΔΔFI: unit not given here. This is another data set of the same source.
The subject of assay [8] is E. coli K-12 BW25113 cells in presence of MV4-11 cells. Kind of assay: Fluorescence microscopy experiments with bacteria and mammalian cells. Particulars: 10^8 cells/mL E. coli; sensor 40 μM. The format is cell-based. Here is the method:
MV4-11 mammalian cells and bacteria samples were both added to a microscope chamber slide and left to incubate for 5 minutes. Visualization was performed first in bright field and then auto-fluorescence was recorded with UV excitation. Sensors were then added into the chamber at appropriate concentrations and fluorescence emission was captured.

Assay [9] concerns zwitterionic vesicles (PC, PE). Kind of assay: Vesicle fluorescence intensity experiments, zwitterionic vesicles. The assay is classed as binding. Particulars: sensor 25 μM; vesicles up to 200 μM; λex/em 350/476 nm. The protocol:
(§2) Small Unilamellar Vesicles (SUVs) were prepared by the extrusion method. Appropriate amounts of lipid in the desired proportions were weighed out to create 10 mM liposome suspensions. The lipids were then dissolved in a minimum amount of chloroform and vortexed to ensure thorough mixing. The excess solvent was then dried off under a gentle stream of nitrogen and allowed to dry overnight in a vacuum dessicator to remove any remaining traces of solvent. The resulting lipid film was then hydrated with 2 mL of HEPES buffer (50 mM HEPES, pH 7.5) for 1 h. The sample was then subjected to five cycles of freeze-thaw-vortex, cycling between liquid nitrogen and a 60° C. water bath. The resulting suspension of multilamellar vesicles (MLVs) was then extruded 25 times through a 0.1 μm polycarbonate membrane installed in a mini-extruder (Avanti Polar Lipids, Alabaster, AL) to form SUV.
10 mM stock solutions of vesicles were diluted separately to 400 μM and 80 μM in pH 7.5, 50 mM HEPES buffer. […] Fluorescence intensities measured were used to calculate the following parameters: ΔFIexc, ΔΔFIexc, ΔFImon, ΔΔFImon, ΔΔFIexc/mon and ΔΔΔFI. […]
(§3) The fluorescence enhancement of the excimer (ΔFIexc) species in the presence of vesicles was calculated using equation 1, which is defined as the ratio of the emission intensities of the sensor-vesicle sample and the sensor alone.

The subject of assay [10] is negatively charged vesicles (PA, PS, PG, CL). The assay can be described thus: Vesicle fluorescence intensity experiments, all negatively charged vesicles. The format is binding. Particulars: sensor 25 μM; vesicles up to 200 μM; λex/em 350/476 nm. The protocol: as §2
10 mM stock solutions of vesicles were diluted separately to 400 μM and 80 μM in pH 7.5, 50 mM HEPES buffer. […] The sensors were dissolved to a concentration of 50 μM (from 800 μM stock solutions in 100% DMSO) in 50 mM HEPES, pH 7.5, 10% DMSO buffer. […] Fluorescence intensities measured were used to calculate the following parameters: ΔFIexc, ΔΔFIexc, ΔFImon, ΔΔFImon, ΔΔFIexc/mon and ΔΔΔFI. The following equations were used for the calculations: […]
Of these, PC and PE represented the zwitterionic vesicles; PS (−1), PA (−1), PG (−1) and CL (−2) represented the negatively charged vesicles.
as §3

Setting [11] is: 25% PS vesicles, 20 μM vesicles.
Setting [12] is: 33% CL vesicles, 20 μM vesicles.
Where [13] appears, read: CL vesicles (50%), 5 μM vesicles.
The mark [14] stands for this setting: CL vesicles (50%), 20 μM vesicles.
[15] abbreviates: 75% PS vesicles, 20 μM vesicles.
The mark [16] stands for this setting: PS vesicles (50%), 5 μM vesicles.
The mark [17] stands for this setting: PS vesicles (50%), 20 μM vesicles.

Where only a bound is given, the exact number is not on record here.

In the case of `c1cc2ccc3ccc(CCCCN4CCCNCCNCCCNCC4)c4ccc(c1)c2c34` [I-4], the ΔΔFI was 3.4 in assay [1] (5 μM vesicles); 7.7 in [1] (20 μM vesicles); 7.3 in assay [3] (5 μM vesicles); 21.7 in [3] (20 μM vesicles); 2.2 in assay [4] (5% PS vesicles, 5 μM vesicles); 3.9 in assay [4] (5% PS vesicles, 20 μM vesicles). The ΔΔFI worked out at 2.9 in [4] (25% PS vesicles, 5 μM vesicles); 5.6 in [4] (setting [11]); 3.9 in [5] (33% CL vesicles, 5 μM vesicles); 9.2 in [5] (setting [12]); 5.9 in [5] (setting [13]); 16.3 in assay [5] (setting [14]). Besides, the ΔΔFI in assay [6] (5 μM vesicles) is given as 1; in assay [6] (20 μM vesicles), 1.3; in assay [7] (75% PS vesicles, 5 μM vesicles), 7.1; in assay [7] (setting [15]), 16.7; in [7] (setting [16]) it was 4.5; in assay [7] (setting [17]) it was 10.3. The “detection of Gram-positive bacteria with a fluorometer in bulk solution” value in assay [2] was “can detect Gram-positive bacteria”. Also, in assay [3] (Table 1 comparison), the “sensing PA compared to PSVue™380” value is on record as “superior”. Moreover, in assay [4] (5 and 25% PS, corresponding to 2.5 and 12.5% of PS exposed to solution), the “detection of PC vesicles containing 5 and 25% PS” value is listed as “efficiently detected”. Further, the “sensitivity compared to PSVue™380, 20 μM CL vesicles” value in assay [5] is on record as “comparable”. In addition, the “sensitivity compared to PSVue™380, 5 μM PS vesicles” value in assay [7] (5 μM PS vesicles) was “comparable”.

Regarding `c1ccc(CN(Cc2ccccn2)Cc2ccc3ccc4cccc5ccc2c3c45)nc1` [I-5], the ΔΔFI was 1.7 in [1] (5 μM vesicles); 3.9 in assay [1] (20 μM vesicles); 4.4 in assay [3] (5 μM vesicles); 14.1 in assay [3] (20 μM vesicles); 1.4 in assay [4] (5% PS vesicles, 5 μM vesicles); 2.6 in assay [4] (5% PS vesicles, 20 μM vesicles). The ΔΔFI in [4] (25% PS vesicles, 5 μM vesicles) is on record as 1.9; in [4] (setting [11]), 4; in assay [5] (33% CL vesicles, 5 μM vesicles), 2.5; in assay [5] (setting [12]), 7.9; in assay [5] (setting [13]), 5; in assay [5] (setting [14]) it was 15.9. For the same compound, the ΔΔFI is on record as 0.9 in assay [6] (5 μM vesicles); 1 in assay [6] (20 μM vesicles); 5.4 in [7] (75% PS vesicles, 5 μM vesicles); 16.7 in assay [7] (setting [15]); 2.9 in assay [7] (setting [16]); 8.8 in assay [7] (setting [17]). Besides, the “sensitivity compared to PSVue™380, 20 μM CL vesicles” value in [5] is “comparable”. Further, the “detection of bacterial cells versus mammalian MV4-11 cells by microscopy” value in assay [8] is on record as “bacterial cells are detected more readily than mammalian MV4-11 cells”.

Turning to `O=C(CCCCc1ccc2ccc3cccc4ccc1c2c34)NCCNC(=O)c1ccc(CN(Cc2ccccn2)CC(O)CN(Cc2ccccn2)Cc2ccccn2)nc1` (stereo not shown) [I-12], in [9], the “ΔFIexc for zwitterionic vesicles” value is ≤ 2. For the same compound, in assay [10], the “ΔFIexc for all negatively charged vesicles” value is on record as ≥ 20 and the “ΔFIexc for negatively charged vesicles, highest value (up to)” value is ~80.
